Literature values, collected in US20050065732A1, “Matrix methods for quantitatively analyzing and assessing the properties of botanical samples” (priority 2001, published 2005).

Experiments:
[1] = test system: human umbilical vein endothelial cells (HUVECs)
[2] = test system: HUVECs

Row | Structure (SMILES) | plasminogen activator inhibitor type I (PAI-1) specific mRNA expression [1] | tissue-type plasminogen activator (t-PA) specific mRNA [1] | PAI-1 antigen synthesis [2] | TPA mRNA [2] | TPA synthesis [2] | expression of PAI-1-specific mRNA [2] | urokinase-type plasminogen activator antigen synthesis [2]
1 | CC(C)(O)[C@@H]1CC[C@](C)([C@H]2[C@@H](O)C[C@@]3(C)[C@@H]4C[C@H](O[C@@H]5O[C@H](CO)[C@@H](O)[C@H](O)[C@H]5O)[C@H]5C(C)(C)[C@@H](O[C@@H]6OC[C@@H](O)[C@H](O)[C@H]6O)CC[C@@]56C[C@@]46CC[C@]23C)O1 [astragaloside IV] | decreased | increased | – | – | – | – | –
2 | CC(C)=CCC[C@](C)(O[C@@H]1O[C@H](CO)[C@@H](O)[C@H](O)[C@H]1O)[C@H]1CC[C@]2(C)[C@@H]1[C@H](O)C[C@@H]1[C@@]3(C)CC[C@H](O)C(C)(C)[C@@H]3[C@@H](O[C@@H]3O[C@H](CO)[C@@H](O)[C@H](O)[C@H]3O[C@@H]3OC[C@@H](O)[C@H](O)[C@H]3O)C[C@]12C [NR1, notoginsenoside R1] | – | – | did not change | increased as much as twofold | dose- and time-dependent increase | not significantly affected | did not change
